Assays:
Assay in all cases: relative viability (nuclei count vs DMSO), 5 days (fraction); higher = more cells survive
BAY61-3606 + Trametinib = compound: COC1=C(C=C(C=C1)C2=CC3=NC=CN3C(=N2)NC4=C(C=CC=N4)C(=O)N)OC [BAY61-3606] + CC(=O)Nc1cccc(-n2c(=O)n(C3CC3)c(=O)c3c(Nc4ccc(I)cc4F)n(C)c(=O)c(C)c32)c1 [Trametinib] (partner 0.02 µM)
In short: (§1)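 Medians of duplicate plates are given as relative viability. That measure is the nuclei count in treated wells divided by the count in vehicle wells. Counts were taken on 4× images of lung cancer cell lines in 1536-well plates, 5 days after pin-tool dosing the day after seeding with one drug alone or a fixed anchor-drug dose plus five library-drug doses (not always all listed) in √10 steps.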

BAY61-3606 + Palbociclib = compound: COC1=C(C=C(C=C1)C2=CC3=NC=CN3C(=N2)NC4=C(C=CC=N4)C(=O)N)OC [BAY61-3606] + CC(=O)c1c(C)c2cnc(Nc3ccc(N4CCNCC4)cn3)nc2n(C2CCCC2)c1=O [Palbociclib] (partner 0.5 µM)
In short: as §1

BAY61-3606 + Navitoclax = compound: COC1=C(C=C(C=C1)C2=CC3=NC=CN3C(=N2)NC4=C(C=CC=N4)C(=O)N)OC [BAY61-3606] + CC1(C)CCC(c2ccc(Cl)cc2)=C(CN2CCN(c3ccc(C(=O)NS(=O)(=O)c4ccc(N[C@H](CCN5CCOCC5)CSc5ccccc5)c(S(=O)(=O)C(F)(F)F)c4)cc3)CC2)C1 [Navitoclax] (partner 0.5 µM)
In short: as §1

BAY61-3606 + Linsitinib = compound: COC1=C(C=C(C=C1)C2=CC3=NC=CN3C(=N2)NC4=C(C=CC=N4)C(=O)N)OC [BAY61-3606] + C[C@]1(O)C[C@@H](c2nc(-c3ccc4ccc(-c5ccccc5)nc4c3)c3c(N)nccn32)C1 [Linsitinib] (partner 1 µM)
In short: as §1

Cell Line | relative viability (BAY61-3606 + Trametinib; first compound 0.02 µM) | relative viability (BAY61-3606 + Trametinib; first compound 0.06325 µM) | relative viability (BAY61-3606 + Trametinib; first compound 0.2 µM) | relative viability (BAY61-3606 + Trametinib; first compound 0.6325 µM) | relative viability (BAY61-3606 + Trametinib; first compound 2 µM) | relative viability (BAY61-3606 + Palbociclib; first compound 0.02 µM) | relative viability (BAY61-3606 + Palbociclib; first compound 0.06325 µM) | relative viability (BAY61-3606 + Palbociclib; first compound 0.2 µM) | relative viability (BAY61-3606 + Palbociclib; first compound 0.6325 µM) | relative viability (BAY61-3606 + Palbociclib; first compound 2 µM) | relative viability (BAY61-3606 + Navitoclax; first compound 0.02 µM) | relative viability (BAY61-3606 + Navitoclax; first compound 0.06325 µM) | relative viability (BAY61-3606 + Navitoclax; first compound 0.2 µM) | relative viability (BAY61-3606 + Navitoclax; first compound 0.6325 µM) | relative viability (BAY61-3606 + Navitoclax; first compound 2 µM) | relative viability (BAY61-3606 + Linsitinib; first compound 0.02 µM) | relative viability (BAY61-3606 + Linsitinib; first compound 0.06325 µM) | relative viability (BAY61-3606 + Linsitinib; first compound 0.2 µM) | relative viability (BAY61-3606 + Linsitinib; first compound 0.6325 µM) | relative viability (BAY61-3606 + Linsitinib; first compound 2 µM)
EPLC-272H | 0.309 | 0.275 | 0.281 | 0.294 | 0.263 | 0.322 | 0.338 | 0.373 | 0.352 | 0.318 | 1.1 | 1 | 0.934 | 1.19 | 1.19 | 1.18 | 1.06 | 1.07 | 1.19 | 1.26
HCC-366 | 0.345 | 0.319 | 0.327 | 0.268 | 0.21 | 0.44 | 0.46 | 0.324 | 0.326 | 0.255 | 1.09 | 1.05 | 0.87 | 0.999 | 0.891 | 0.831 | 0.613 | 0.689 | 0.694 | 0.366
PC-14 | 0.732 | 0.887 | 0.732 | 1.01 | 0.607 | 0.455 | 0.546 | 0.468 | 0.514 | 0.453 | 1.04 | 1.11 | 0.983 | 1.01 | 0.982 | 1.05 | 1.04 | 0.916 | 0.968 | 0.826
SW 1573 | 0.566 | 0.668 | 0.533 | 0.578 | 0.341 | 0.455 | 0.423 | 0.35 | 0.344 | 0.248 | 0.84 | 0.918 | 0.832 | 0.97 | 0.683 | 0.821 | 0.762 | 0.803 | 0.674 | 0.625
COR-L 105 | 0.474 | 0.414 | 0.463 | 0.429 | 0.436 | 0.443 | 0.437 | 0.404 | 0.422 | 0.411 | 0.79 | 0.714 | 0.624 | 0.812 | 0.409 | 1.11 | 1.02 | 0.926 | 0.812 | 0.616
NCI-H322M | 0.533 | 0.522 | 0.542 | 0.499 | 0.486 | 0.522 | 0.47 | 0.511 | 0.49 | 0.447 | 1.38 | 1.25 | 1.22 | 1.3 | 1.33 | 1.05 | 0.946 | 0.911 | 0.925 | 0.878
NCI-H1395 | 1.06 | 1.07 | 0.964 | 1.02 | 0.95 | 0.702 | 0.598 | 0.608 | 0.682 | 0.59 | 1.26 | 1.04 | 1.49 | 1.35 | 0.966 | 1.39 | 0.989 | 1.1 | 1.1 | 0.888
PC-3 [JPC-3] | 0.772 | 0.668 | 0.741 | 0.726 | 0.654 | 0.531 | 0.512 | 0.529 | 0.521 | 0.517 | 0.826 | 0.849 | 0.773 | 0.805 | 0.776 | 0.895 | 0.906 | 0.947 | 1.01 | 0.93
NCI-H1975 | 0.409 | 0.295 | 0.354 | 0.325 | 0.254 | 0.616 | 0.628 | 0.526 | 0.504 | 0.347 | 1.16 | 0.937 | 1.02 | 1.04 | 0.72 | 1.1 | 0.813 | 0.891 | 0.837 | 0.615
CAL-12T | 0.359 | 0.372 | 0.346 | 0.347 | 0.229 | 0.634 | 0.504 | 0.615 | 0.287 | 0.246 | 1.23 | 1.42 | 1.2 | 1.27 | 0.67 | 0.903 | 0.755 | 0.818 | 0.85 | 0.388
SK-LU-1 | 0.562 | 0.512 | 0.482 | 0.532 | 0.406 | 0.356 | 0.384 | 0.35 | 0.357 | 0.289 | 1.19 | 0.836 | 0.695 | 0.812 | 0.55 | 1.13 | 1.21 | 0.987 | 0.984 | 0.482
NCI-H2023 | 0.571 | 0.64 | 0.518 | 0.587 | 0.413 | 0.393 | 0.401 | 0.397 | 0.423 | 0.283 | 1.03 | 1.05 | 1.07 | 1.02 | 0.873 | 0.703 | 0.681 | 0.779 | 0.715 | 0.557
201T | 0.728 | 0.712 | 0.771 | 0.753 | 0.735 | 0.346 | 0.349 | 0.341 | 0.397 | 0.366 | 1.22 | 1.2 | 1.23 | 1.21 | 1.3 | 1.05 | 0.975 | 0.972 | 1.01 | 1.07
NCI-H2405 | 0.637 | 0.559 | 0.711 | 0.728 | 0.518 | 0.564 | 0.517 | 0.503 | 0.592 | 0.494 | 0.904 | 0.669 | 0.857 | 1.08 | 0.655 | 1.05 | 0.835 | 0.94 | 1.12 | 0.639
LU99A | 0.485 | 0.57 | 0.534 | 0.503 | 0.47 | 0.448 | 0.395 | 0.451 | 0.417 | 0.271 | 0.845 | 0.762 | 0.984 | 0.828 | 0.396 | 0.544 | 0.548 | 0.575 | 0.501 | 0.318
LC-2-ad | 0.911 | 0.961 | 0.979 | 0.942 | 0.902 | 0.479 | 0.516 | 0.454 | 0.532 | 0.453 | 0.471 | 0.521 | 0.466 | 0.468 | 0.26 | 0.971 | 0.922 | 0.897 | 0.827 | 0.562

— the supplement of paper PMC10307832
